# Results reported in ChEMBL document CHEMBL1201861, “Genomics of Drug Sensitity in Cancer screening data, Wellcome Trust Sanger Institute”.
# Columns and labels:
# EW-22 = test: cells; type: functional, cell-based; settings: Homo sapiens;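 note: growth inhibition of the EW-22 cell line, measured with a cell viability readout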
# Description: SANGER: Inhibition of human EW-22 cell growth in a cell viability assay.
# KNS-62 = test: cells; type: functional, cell-based; settings: Homo sapiens;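 note: inhibition of cell growth, read out with a cell viability assay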
# Description: SANGER: Inhibition of human KNS-62 cell growth in a cell viability assay.
# LU-135 = test: cells; type: functional, cell-based; settings: Homo sapiens
# Description: SANGER: Inhibition of human LU-135 cell growth in a cell viability assay.
# BT-549 = test: cells; type: functional, cell-based; settings: Homo sapiens
# Description: SANGER: Inhibition of human BT-549 cell growth in a cell viability assay.
# NCI-H1048 = test: cells; type: functional, cell-based; settings: Homo sapiens;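 note: growth inhibition of human NCI-H1048 cells, read out with a cell viability assay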
# Description: SANGER: Inhibition of human NCI-H1048 cell growth in a cell viability assay.
# D-566MG = test: cells; type: functional, cell-based; settings: Homo sapiens
# NCI-H1666 = test: cells; type: functional, cell-based; settings: Homo sapiens;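 note: growth inhibition of the cell line, read out with a cell viability assay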
# Description: SANGER: Inhibition of human NCI-H1666 cell growth in a cell viability assay.
# NCI-H2009 = test: cells; type: functional, cell-based, Homo sapiens; settings: Homo sapiens, NCI-H2009;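 note: cell viability assay measuring inhibition of NCI-H2009 cell growth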
# Description: SANGER: Inhibition of human NCI-H2009 cell growth in a cell viability assay.
# NCI-H1573 = test: cells; type: functional, cell-based; settings: Homo sapiens;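 note: growth inhibition of NCI-H1573 cells, read out with a cell viability assay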
# Description: SANGER: Inhibition of human NCI-H1573 cell growth in a cell viability assay.
# TGBC11TKB = test: cells; type: functional, cell-based; settings: Homo sapiens;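 note: growth inhibition of human TGBC11TKB cells, measured by a cell viability assay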
# Description: SANGER: Inhibition of human TGBC11TKB cell growth in a cell viability assay.
# NCI-H2291 = test: cells; type: functional, cell-based; settings: Homo sapiens
# Description: SANGER: Inhibition of human NCI-H2291 cell growth in a cell viability assay.
# HSC-4 = test: cells; type: functional, cell-based, Homo sapiens; settings: Homo sapiens, HSC-4;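 note: growth inhibition of human HSC-4 cells, read out with a cell viability assay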
# Description: SANGER: Inhibition of human HSC-4 cell growth in a cell viability assay.
# EPLC-272H = test: cells; type: functional, cell-based; settings: Homo sapiens
# Description: SANGER: Inhibition of human EPLC-272H cell growth in a cell viability assay.
# A549 = test: cells; type: functional, cell-based; settings: Homo sapiens;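 note: growth inhibition of A549 cells, read out with a cell viability assay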
# Description: SANGER: Inhibition of human A549 cell growth in a cell viability assay.
# IM-9 = test: SANGER: Inhibition of human IM-9 cell growth in a cell viability assay.; type: functional, cell-based
# CA46 = test: cells; type: functional, cell-based; settings: Homo sapiens;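 note: growth inhibition of human CA46 cells, read out by a cell viability assay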
# Description: SANGER: Inhibition of human CA46 cell growth in a cell viability assay.
# NCI-H1522 = test: cells; type: functional, cell-based; settings: Homo sapiens;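 note: growth inhibition of NCI-H1522 cells, read out with a cell viability assay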
# Description: SANGER: Inhibition of human NCI-H1522 cell growth in a cell viability assay.
# IMR-5 = test: cells; type: functional, cell-based; settings: Homo sapiens;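 note: growth inhibition of human IMR-5 cells, read out with a cell viability assay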
# Description: SANGER: Inhibition of human IMR-5 cell growth in a cell viability assay.
# THP-1 = test: cells; type: functional, cell-based; settings: Homo sapiens;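 note: growth inhibition of THP-1 cells, read out via a cell viability assay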
# Description: SANGER: Inhibition of human THP-1 cell growth in a cell viability assay.
# NCI-H719 = test: cells; type: functional, cell-based; settings: Homo sapiens;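 note: growth inhibition of the cultured cell line, read out with a viability assay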
# Description: SANGER: Inhibition of human NCI-H719 cell growth in a cell viability assay.
# MRK-nu-1 = test: cells; type: functional, cell-based; settings: Homo sapiens;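 note: cell viability assay measuring growth suppression of human MRK-nu-1 cells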
# Description: SANGER: Inhibition of human MRK-nu-1 cell growth in a cell viability assay.
# BC-3 = test: cells; type: functional, cell-based; settings: Homo sapiens;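 note: cell viability assay measuring growth inhibition of human BC-3 cells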
# Description: SANGER: Inhibition of human BC-3 cell growth in a cell viability assay.
# SCC-3 = test: cells; type: functional, cell-based; settings: Homo sapiens;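 note: cell viability assay measuring inhibition of SCC-3 cell growth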
# Description: SANGER: Inhibition of human SCC-3 cell growth in a cell viability assay.
# NCI-H1882 = test: cells; type: functional, cell-based; settings: Homo sapiens
# Description: SANGER: Inhibition of human NCI-H1882 cell growth in a cell viability assay.
# CHP-126 = test: cells; type: functional, cell-based; settings: Homo sapiens
# Description: SANGER: Inhibition of human CHP-126 cell growth in a cell viability assay.
# DMS-153 = test: cells; type: functional, cell-based; settings: Homo sapiens
# Description: SANGER: Inhibition of human DMS-153 cell growth in a cell viability assay.
# U-698-M = test: cells; type: functional, cell-based; settings: Homo sapiens
# Description: SANGER: Inhibition of human U-698-M cell growth in a cell viability assay.
# PF-382 = test: cells; type: functional, cell-based; settings: Homo sapiens
# Description: SANGER: Inhibition of human PF-382 cell growth in a cell viability assay.
# SU-DHL-1 = test: SANGER: Inhibition of human SU-DHL-1 cell growth in a cell viability assay.; type: functional, cell-based
# EB-3 = test: cells; type: functional, cell-based; settings: Homo sapiens;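 note: human EB-3 cells, growth inhibition read out via a cell viability assay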
# Description: SANGER: Inhibition of human EB-3 cell growth in a cell viability assay.
# BC1 cell line = test: SANGER: Inhibition of human BC-1 cell growth in a cell viability assay.; type: functional, cell-based
# WSU-NHL = test: cells; type: functional, cell-based; settings: Homo sapiens;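 note: growth inhibition of human WSU-NHL cells, read out with a cell viability assay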
# Description: SANGER: Inhibition of human WSU-NHL cell growth in a cell viability assay.
# TALL-1 = test: cells; type: functional, cell-based; settings: Homo sapiens;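 note: growth inhibition of cultured human TALL-1 cells, read out by a cell viability assay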
# Description: SANGER: Inhibition of human TALL-1 cell growth in a cell viability assay.
# K052 = test: cells; type: functional, cell-based; settings: Homo sapiens;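 note: Read-out from a cell viability assay, IC50 reflecting suppression of K052 cell growth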
# Description: SANGER: Inhibition of human K052 cell growth in a cell viability assay.
# SK-MM-2 = test: cells; type: functional, cell-based; settings: Homo sapiens;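 note: growth inhibition of human SK-MM-2 cells, read out with a cell viability assay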
# Description: SANGER: Inhibition of human SK-MM-2 cell growth in a cell viability assay.
# LB647-SCLC = test: cells; type: functional, cell-based; settings: Homo sapiens;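 note: cell growth inhibition, read out by a viability assay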
# Description: SANGER: Inhibition of human LB647-SCLC cell growth in a cell viability assay.
# NCI-H64 = test: cells; type: functional, cell-based; settings: Homo sapiens;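 note: growth inhibition of NCI-H64 cells, read out with a cell viability assay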
# Description: SANGER: Inhibition of human NCI-H64 cell growth in a cell viability assay.
# KARPAS-422 = test: cells; type: functional, cell-based; settings: Homo sapiens
# Description: SANGER: Inhibition of human KARPAS-422 cell growth in a cell viability assay.
# UACC-812 = test: cells; type: functional, cell-based; settings: Homo sapiens
# Description: SANGER: Inhibition of human UACC-812 cell growth in a cell viability assay.
# TE-15 = test: cells; type: functional, cell-based; settings: Homo sapiens;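 note: cell viability readout of growth inhibition in TE-15 cells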
# Description: SANGER: Inhibition of human TE-15 cell growth in a cell viability assay.
# MONO-MAC-6 = test: cells; type: functional, cell-based; settings: Homo sapiens;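 note: cell viability assay measuring growth inhibition of human MONO-MAC-6 cells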
# Description: SANGER: Inhibition of human MONO-MAC-6 cell growth in a cell viability assay.
# HCC1599 = test: cells; type: functional, cell-based; settings: Homo sapiens;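 note: growth inhibition of HCC1599 cells, read out in a cell viability assay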
# Description: SANGER: Inhibition of human HCC1599 cell growth in a cell viability assay.
# RL95-2 = test: cells; type: functional, cell-based; settings: Homo sapiens;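 note: RL95-2 growth inhibition determined through a cell viability readout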
# Description: SANGER: Inhibition of human RL95-2 cell growth in a cell viability assay.
# NCI-H1963 = test: cells; type: functional, cell-based; settings: Homo sapiens
# Description: SANGER: Inhibition of human NCI-H1963 cell growth in a cell viability assay.
# NCI-H2196 = test: cells; type: functional, cell-based; settings: Homo sapiens;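 note: cell viability assay used as the readout of growth inhibition in NCI-H2196 cells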
# Description: SANGER: Inhibition of human NCI-H2196 cell growth in a cell viability assay.
# SUP-T1 = test: cells; type: functional, cell-based; settings: Homo sapiens;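 note: growth inhibition of human SUP-T1 cells, read out as cell viability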
# Description: SANGER: Inhibition of human SUP-T1 cell growth in a cell viability assay.
# SIMA = test: cells; type: functional, cell-based, Homo sapiens; settings: Homo sapiens, SIMA;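 note: growth inhibition of SIMA cells, measured with a cell viability readout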
# Description: SANGER: Inhibition of human SIMA cell growth in a cell viability assay.
# NCI-H1694 = test: cells; type: functional, cell-based; settings: Homo sapiens;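 note: cell viability assay measuring inhibition of growth in human NCI-H1694 cells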
# Description: SANGER: Inhibition of human NCI-H1694 cell growth in a cell viability assay.
# REH = test: cells; type: functional, cell-based; settings: Homo sapiens;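 note: growth inhibition of REH cells determined with a cell viability read-out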
# Description: SANGER: Inhibition of human REH cell growth in a cell viability assay.
# EB2 = test: cells; type: functional, cell-based; settings: Homo sapiens;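 note: growth inhibition of EB2 cells, read out with a cell viability assay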
# Description: SANGER: Inhibition of human EB2 cell growth in a cell viability assay.
# NB1 = test: cells; type: functional, cell-based; settings: Homo sapiens;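 note: reduction of NB1 cell proliferation, read out with a viability assay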
# Description: SANGER: Inhibition of human NB1 cell growth in a cell viability assay.
# NCI-H322M = test: cells; type: functional, cell-based; settings: Homo sapiens;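 note: cell viability assay measuring inhibition of growth of human NCI-H322M cells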
# Description: SANGER: Inhibition of human NCI-H322M cell growth in a cell viability assay.
# SIG-M5 = test: cells; type: functional, cell-based; settings: Homo sapiens;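 note: cell viability assay read-out, measuring how strongly growth of cultured human SIG-M5 cells is inhibited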
# Description: SANGER: Inhibition of human SIG-M5 cell growth in a cell viability assay.
# CESS = test: SANGER: Inhibition of human CESS cell growth in a cell viability assay.; type: functional, cell-based
# LOUCY = test: cells; type: functional, cell-based; settings: Homo sapiens;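 note: growth inhibition of human LOUCY cells, read out with a cell viability assay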
# Description: SANGER: Inhibition of human LOUCY cell growth in a cell viability assay.
# LC-1F = test: cells; type: functional, cell-based; settings: Homo sapiens;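 note: growth inhibition of human LC-1F cells, read out with a cell viability assay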
# Description: SANGER: Inhibition of human LC-1F cell growth in a cell viability assay.
# P31-FUJ = test: cells; type: functional, cell-based; settings: Homo sapiens;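 note: growth inhibition of P31-FUJ cells, read out with a viability assay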
# Description: SANGER: Inhibition of human P31-FUJ cell growth in a cell viability assay.
# ECC12 = test: cells; type: functional, cell-based; settings: Homo sapiens
# Description: SANGER: Inhibition of human ECC12 cell growth in a cell viability assay.
# NCI-H2227 = test: cells; type: functional, cell-based; settings: Homo sapiens;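 note: growth inhibition of the human cell line, read out with a cell viability assay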
# Description: SANGER: Inhibition of human NCI-H2227 cell growth in a cell viability assay.
# SNU-423 = test: cells; type: functional, cell-based, Homo sapiens; settings: Homo sapiens, SNU-423
# Description: SANGER: Inhibition of human SNU-423 cell growth in a cell viability assay.
# NCI-H522 = test: cells; type: functional, cell-based, Homo sapiens; settings: Homo sapiens, NCI-H522;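 note: cell viability assay measuring growth inhibition of human NCI-H522 cells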
# Description: SANGER: Inhibition of human NCI-H522 cell growth in a cell viability assay.
structure (smiles),measurement,setting,value
Cn1cc(C2=C(c3ccc(Cl)cc3Cl)C(=O)NC2=O)c2ccccc21 [SB-216763],IC50,EW-22,> 10000 nM
same,IC50,KNS-62,> 10000 nM
same,IC50,LU-135,> 10000 nM
same,IC50,BT-549,5290 nM
same,IC50,NCI-H1048,> 10000 nM
same,IC50,D-566MG,> 10000 nM
same,IC50,NCI-H1666,> 10000 nM
same,IC50,NCI-H2009,> 10000 nM
same,IC50,NCI-H1573,> 10000 nM
same,IC50,TGBC11TKB,> 10000 nM
same,IC50,NCI-H2291,> 10000 nM
same,IC50,HSC-4,> 10000 nM
same,IC50,EPLC-272H,> 10000 nM
same,IC50,A549,> 10000 nM
CO[C@H]1C[C@@H]2CC[C@@H](C)[C@@](O)(O2)C(=O)C(=O)N2CCCC[C@H]2C(=O)O[C@H]([C@H](C)C[C@@H]2CC[C@@H](O)[C@H](OC)C2)CC(=O)[C@H](C)/C=C(\C)[C@@H](O)[C@@H](OC)C(=O)[C@H](C)C[C@H](C)/C=C/C=C/C=C/1C [SIROLIMUS],IC50,IM-9,> 100 nM
same,IC50,CA46,> 100 nM
same,IC50,EW-22,> 100 nM
same,IC50,NCI-H1522,> 100 nM
same,IC50,IMR-5,> 100 nM
same,IC50,THP-1,> 100 nM
same,IC50,NCI-H719,> 100 nM
same,IC50,MRK-nu-1,< 0.391 nM
same,IC50,BC-3,99.2 nM
same,IC50,SCC-3,> 100 nM
same,IC50,NCI-H1882,> 100 nM
same,IC50,CHP-126,> 100 nM
same,IC50,DMS-153,> 100 nM
same,IC50,U-698-M,> 100 nM
same,IC50,PF-382,96.8 nM
same,IC50,SU-DHL-1,> 100 nM
same,IC50,EB-3,52.7 nM
same,IC50,BC1 cell line,31.3 nM
same,IC50,WSU-NHL,> 100 nM
same,IC50,TALL-1,> 100 nM
same,IC50,K052,> 100 nM
same,IC50,SK-MM-2,> 100 nM
same,IC50,LB647-SCLC,> 100 nM
same,IC50,NCI-H64,> 100 nM
same,IC50,KARPAS-422,> 100 nM
same,IC50,UACC-812,> 100 nM
same,IC50,TE-15,1.36 nM
same,IC50,MONO-MAC-6,> 100 nM
same,IC50,HCC1599,> 100 nM
same,IC50,RL95-2,0.107 nM
same,IC50,NCI-H1963,> 100 nM
same,IC50,NCI-H2196,> 100 nM
same,IC50,SUP-T1,> 100 nM
same,IC50,SIMA,> 100 nM
same,IC50,NCI-H1694,> 100 nM
same,IC50,REH,> 100 nM
same,IC50,EB2,> 100 nM
same,IC50,NB1,> 100 nM
same,IC50,NCI-H322M,> 100 nM
same,IC50,SIG-M5,17.2 nM
same,IC50,CESS,13.1 nM
same,IC50,LOUCY,> 100 nM
same,IC50,LC-1F,> 100 nM
same,IC50,P31-FUJ,> 100 nM
CS(=O)(=O)CCNCc1ccc(-c2ccc3ncnc(Nc4ccc(OCc5cccc(F)c5)c(Cl)c4)c3c2)o1 [LAPATINIB],IC50,IM-9,> 2000 nM
same,IC50,ECC12,92.3 nM
same,IC50,CA46,> 2000 nM
same,IC50,NCI-H1522,> 2000 nM
same,IC50,IMR-5,> 2000 nM
same,IC50,THP-1,> 2000 nM
same,IC50,NCI-H719,> 2000 nM
same,IC50,MRK-nu-1,> 2000 nM
same,IC50,BC-3,> 2000 nM
same,IC50,SCC-3,> 2000 nM
same,IC50,NCI-H1882,> 2000 nM
same,IC50,CHP-126,> 2000 nM
same,IC50,DMS-153,> 2000 nM
same,IC50,U-698-M,> 2000 nM
same,IC50,PF-382,> 2000 nM
same,IC50,SU-DHL-1,> 2000 nM
same,IC50,EB-3,> 2000 nM
same,IC50,BC1 cell line,> 2000 nM
same,IC50,WSU-NHL,> 2000 nM
same,IC50,TALL-1,> 2000 nM
same,IC50,SK-MM-2,> 2000 nM
same,IC50,LB647-SCLC,> 2000 nM
same,IC50,NCI-H64,> 2000 nM
same,IC50,KARPAS-422,> 2000 nM
same,IC50,UACC-812,> 2000 nM
same,IC50,TE-15,> 2000 nM
same,IC50,MONO-MAC-6,> 2000 nM
same,IC50,HCC1599,> 2000 nM
same,IC50,RL95-2,> 2000 nM
same,IC50,NCI-H1963,> 2000 nM
same,IC50,NCI-H2196,> 2000 nM
same,IC50,SUP-T1,> 2000 nM
same,IC50,SIMA,> 2000 nM
same,IC50,NCI-H1694,> 2000 nM
same,IC50,REH,> 2000 nM
same,IC50,EB2,> 2000 nM
same,IC50,NCI-H2227,> 2000 nM
same,IC50,NB1,> 2000 nM
same,IC50,NCI-H322M,> 2000 nM
same,IC50,SIG-M5,> 2000 nM
same,IC50,CESS,> 2000 nM
same,IC50,LOUCY,> 2000 nM
same,IC50,LC-1F,1380 nM
same,IC50,P31-FUJ,> 2000 nM
O=c1cc(-c2cccc3c2Sc2ccccc2S3)oc(N2CCOCC2)c1 [KU-55933],IC50,EW-22,> 10000 nM
same,IC50,SNU-423,> 10000 nM
same,IC50,KNS-62,> 10000 nM
same,IC50,LU-135,> 10000 nM
same,IC50,BT-549,> 10000 nM
same,IC50,NCI-H522,> 10000 nM
same,IC50,NCI-H1048,> 10000 nM
same,IC50,D-566MG,> 10000 nM
same,IC50,NCI-H1666,> 10000 nM
same,IC50,NCI-H2009,> 10000 nM
same,IC50,NCI-H1573,> 10000 nM
same,IC50,TGBC11TKB,> 10000 nM
same,IC50,NCI-H2291,> 10000 nM
same,IC50,EPLC-272H,> 10000 nM
same,IC50,A549,> 10000 nM
